In patent US20260193571A1, “AQUEOUS COMPOSITION CONTAINING CUCURBITURILS” (Clariant International Ltd, priority 2022, published 2026):
Converted amounts (≈) assume the structure as drawn. Each block holds one compound with its values, some of them ahead of it.

Key:
[1] = in water at room temperature (25° C.); cited from earlier work
[2] = Increasing the solubility of cucurbiturils in water: appearance of aqueous compositions comprising cucurbiturils; type: physicochemical; settings: 0.2 percent by weight cucurbituril sample, 25° C.
Procedure: Compositions consisting of the cucurbituril sample and water and compositions consisting of the cucurbituril sample, other substances but no solubilizing agents according to component Z2) of the inventive aqueous compositions, and water were prepared and used as comparative compositions.

[3] = Malodor removing effect: headspace GC-MS measurement of odorants; settings: headspace 60° C. 30 min, no agent/no cucurbiturils = 100
Procedure: An artificial malodor composition was prepared by mixing 10 mg of 2,3-butanedione, 5 mg of octanal, 30 mg of isovaleraldehyde, 300 mg of isovaleric acid and 50 mg of hexanal in 1 L of water.
The cucurbituril sample contains cucurbit[6]uril (50% by weight), cucurbit[7]uril (35% by weight) and cucurbit[8]uril (10% by weight).
Aqueous cucurbituril composition B: 0.5% by weight of the cucurbituril sample was mixed in water.
1 mL of aqueous cucurbituril composition A or B, 1 mL of malodor composition and 3 mL of water were mixed.
1 mL of 5% by weight of solubilizing agent in water, 1 mL of malodor composition and 3 mL of water were mixed.
4 mL of water and 1 mL of malodor composition were mixed.
The mixtures were prepared in headspace vials. The vials were then closed tightly and analyzed.
Analytical evaluation of malodor in the vials was conducted through a headspace measurement. A Gas Chromatograph Agilent 9000 Intuvo equipped with an autosampler Agilent 7697A equipped with a headspace extracting syringe, a Mass Detector Agilent MSD 5977B was used.
The headspace vials were equilibrated at 60° C. for 30 min at the autosampler before the measurement. A gas phase sample of 1000 μL was extracted from the vial and injected into the GC column. • Carrier gas: Helium 22.7 psi, split 5:1 • Column: DB-624 UI (length 60m, diameter 250 μm, size of film 1.4 μm) • Oven: Initial 40° C.—Hold time 2 mb—Rate 20° C./min—Temperature 260° C. —Hold time 5 min • Mass detector parameter: run in select ion mode. The peak area of each odorant was then integrated and recorded.

[4] = substance at 5 percent by weight in water
[5] = substance at 10 percent by weight in water
[6] = mixture contains cucurbiturils: 1 mL composition A (5% agent + 0.5% cucurbituril sample) or B (0.5% sample only) + 1 mL malodor composition + 3 mL water
[7] = mixture without cucurbiturils: 1 mL of 5% by weight solubilizing agent + 1 mL malodor composition + 3 mL water

Compound: O=C1N2CN3C(=O)N4CN5C(=O)N6CN7C(=O)N8CN9C(=O)N%10CN%11C(=O)N%12CN%13C(=O)N%14CN%15C(=O)N%16CN1C1C2N2CN%17C(=O)N(CN%18C(=O)N(CN%19C(=O)N(CN%20C(=O)N(CN%21C(=O)N(CN%22C(=O)N(CN%23C(=O)N(CN1C2=O)C%16C%15%23)C%14C%13%22)C%12C%11%21)C%10C9%20)C8C7%19)C6C5%18)C4C3%17 (stereo not shown) [cucurbit[8]uril]
water solubility [1]: 17 µg/mL (≈ 12.8 µM)

Appearance [2, 4]: very turbid
Compound: C12/14 alkyl ethoxylate with 8 EO

Appearance [2, 5]: very turbid
Compound: CC(O)CO (stereo not shown) [Propylene glycol]

Compound: O=C1N2CN3C(=O)N4CN5C(=O)N6CN7C(=O)N8CN9C(=O)N%10CN%11C(=O)N%12CN1C1C2N2CN%13C(=O)N(CN%14C(=O)N(CN%15C(=O)N(CN%16C(=O)N(CN%17C(=O)N(CN1C2=O)C%12C%11%17)C%10C9%16)C8C7%15)C6C5%14)C4C3%13 (stereo not shown) [cucurbit[6]uril]
water solubility [1]: 18 µg/mL (≈ 18.1 µM)

Appearance [2, 4]: very turbid
Compound: Sodium laureth sulfate

Appearance [2, 5]: very turbid
Compound: CCO [Ethanol]

Appearance [2, 4]: clear
Compound: lauramine oxide [Genaminox LA]
Relative peak area 2,3-butadione [3, 6]: 11
Relative peak area hexanal [3, 6]: 9
Relative peak area isovaleraldehyde [3, 6]: 6
Relative peak area isovaleric acid [3, 6]: 3
Relative peak area octanal [3, 6]: 73
Relative peak area 2,3-butadione [3, 7]: 181
Relative peak area hexanal [3, 7]: 203
Relative peak area isovaleraldehyde [3, 7]: 182
Relative peak area isovaleric acid [3, 7]: 10
Relative peak area octanal [3, 7]: 134

Appearance [2, 4]: very turbid
Compound: Alkylbenzene sulfonate

Appearance [2, 5]: very turbid
Compound: [Ca+2].[Cl-].[Cl-] [CaCl2]
